Measured values reported in US10287300B2 (Merck Patent GmbH, priority 2012, dated 2019).

Legend:
[1] = target: P70S6K (T412E mutant, Millipore) (Homo sapiens (Human), UniProt P23443, T412E); test: P70S6K enzyme assay; assay type: biochemical; details: 24 μM ATP, 90 min at 25° C.
Experimental: P70S6K inhibitor compounds were diluted and plated in 96 well plates. A reaction mixture including the following components was then added to the compound plate to initiate the enzyme reaction; P70S6K (3 nM, T412E mutant, Millipore) was mixed with 24 μM ATP in an assay buffer containing 100 mM Hepes (pH 7.5), 5 mM MgCl2, 1 mM DTT, 0.015% Brij and 1 μM of the substrate peptide FITC-AHA-AKRRRLSSLRA-OH (derived from the S6 ribosomal protein sequence, FITC=fluorescein isothiocyanate, AHA=6-aminohexanoic acid). The reaction was incubated for 90 min at 25° C., before the addition of 10 mM EDTA to stop the reaction. The proportion of substrate and product (phosphorylated) peptide was analysed on a Caliper Life Sciences Lab Chip 3000, using a pressure of −1.4 psi, and upstream and downstream voltages of −3000 and −700 respectively. Product peaks were resolved before substrate peaks on the resulting chromatograms.

His-AKT (Full Length) = His-AKT (Full Length) (Homo sapiens (Human), UniProt P31749); test: AKT enzyme assay; assay type: biochemical; details: 160 uM ATP, 90 min at 25° C.
Chain of His-AKT (Full Length) (P31749 whole entry): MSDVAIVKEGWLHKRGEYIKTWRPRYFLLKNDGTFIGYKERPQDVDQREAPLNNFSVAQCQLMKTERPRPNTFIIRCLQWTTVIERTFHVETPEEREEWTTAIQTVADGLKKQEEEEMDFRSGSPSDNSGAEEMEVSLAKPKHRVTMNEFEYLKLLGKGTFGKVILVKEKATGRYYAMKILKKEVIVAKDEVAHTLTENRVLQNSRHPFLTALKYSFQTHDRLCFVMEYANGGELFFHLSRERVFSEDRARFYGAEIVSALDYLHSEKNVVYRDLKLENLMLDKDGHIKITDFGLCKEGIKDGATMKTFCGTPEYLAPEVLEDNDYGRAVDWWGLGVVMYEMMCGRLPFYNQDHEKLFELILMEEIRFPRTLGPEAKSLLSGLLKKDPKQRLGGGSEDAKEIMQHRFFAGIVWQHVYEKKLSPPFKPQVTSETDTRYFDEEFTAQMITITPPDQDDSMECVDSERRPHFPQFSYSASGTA
Experimental: A TTP Mosquito liquid handling instrument was used to place 125 nl of the appropriate concentration of inhibitor in 100% DMSO (for a dose response curve calculation) into each well of a 384-well plate. To this reaction components were added to a final volume of 12.5 μl: • 0.1 ng/μl His-AKT (Full Length), (Invitrogen, Part # P2999, Lot #641228C). • 160 uM ATP (Fluka, 02055) • 1 mM DTT (Sigma, D0632) • 1 mM MgCl2 (Sigma, M1028) • 1 μM substrate peptide (sequence FITC-AHA-GRPRTSSFAEG-NH2), • synthesized by Tufts Peptide Synthesis service. • 100 mM HEPES pH 7.5 (Calbiochem, 391338) • 0.015% Brij-35 (Sigma, B4184)
The reaction was incubated for 90 min at 25° C., and then stopped by the addition of 70 μl of Stop buffer (100 mM HEPES pH 7.5, 0.015% Brij-35, 10 mM EDTA (Sigma, E7889)).
The plate was read on a Caliper LC 3000 in an Off-Chip mobility shift assay format, using the following parameters for a 12-sipper chip: screening pressure −2.3 psi, upstream voltage −500, and downstream voltage −3000. These conditions caused unphosphorylated substrate and phosphorylated product peptide to resolve as separate peaks allowing direct measurement of percentage of conversion of substrate to product. The percent conversion was plotted against concentration of inhibitor to produce a sigmoidal dose response curve, from which an IC50 was calculated.

Chain of P70S6K (T412E mutant, Millipore) (P23443 whole entry T412E): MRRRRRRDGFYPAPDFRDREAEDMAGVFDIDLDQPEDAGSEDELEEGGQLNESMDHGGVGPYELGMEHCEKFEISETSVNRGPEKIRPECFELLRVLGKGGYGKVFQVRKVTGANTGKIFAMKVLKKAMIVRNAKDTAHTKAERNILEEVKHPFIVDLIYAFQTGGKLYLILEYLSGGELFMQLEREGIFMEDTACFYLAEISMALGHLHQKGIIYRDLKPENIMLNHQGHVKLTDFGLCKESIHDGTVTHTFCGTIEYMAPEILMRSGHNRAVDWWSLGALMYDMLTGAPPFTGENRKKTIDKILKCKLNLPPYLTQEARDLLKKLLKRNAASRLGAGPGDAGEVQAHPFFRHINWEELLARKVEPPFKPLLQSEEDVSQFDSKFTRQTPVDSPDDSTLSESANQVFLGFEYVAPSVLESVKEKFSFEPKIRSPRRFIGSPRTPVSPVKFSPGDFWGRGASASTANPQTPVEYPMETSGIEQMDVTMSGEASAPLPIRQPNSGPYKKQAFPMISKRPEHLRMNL

Structure (SMILES) | IC50 [1] | IC50 (His-AKT (Full Length))
NCC(c1ccc(C(F)(F)F)cc1)C1CCN(c2ccnc3c2CCCN3)CC1 (stereo not drawn) [Compound A1, 2-(1-(5,6,7,8-tetrahydro-1,8-naphthyridin-4-yl)piperidin-4-yl)-2-(4-(trifluoromethyl)phenyl)ethanamine] | 25 to 100 nM | 101 to 500 nM
NCC(c1ccc(C(F)(F)F)cc1)C1CCN(c2ccnc3c2CCN3)CC1 (stereo not drawn) [Compound A2, 2-(1-(2,3-dihydro-1H-pyrrolo[2,3-b]pyridin-4-yl)piperidin-4-yl)-2-(4-(trifluoro-methyl)phenyl)ethanamine] | 25 to 100 nM | 25 to 100 nM
NCC(c1ccc(C(F)(F)F)cc1)C1CCN(c2ccnc3c2CCC3)CC1 (stereo not drawn) [Compound A3, 2-(1-(6,7-dihydro-5H-cyclopenta[b]pyridin-4-yl)piperidin-4-yl)-2-(4-(trifluoromethyl)phenyl)ethanamine] | > 1000 nM | > 1000 nM
CN(C)CC(c1ccc(Cl)cc1)N1CCN(c2ncnc3c2OCCN3)CC1 (stereo not drawn) [Compound A4, {2-(4-Chlorophenyl)-2-[4-(7,8-dihydro-6H-pyrimido[5,4-b][1,4]oxazin-4-yl)-piperazin-1-yl]-ethyl}-dimethylamine] | > 1000 nM | 101 to 500 nM
CN(C)CC(c1ccc(C(F)(F)F)cc1)N1CCN(c2ncnc3c2OCCN3)CC1 (stereo not drawn) [Compound A5, [2-[4-(7,8-Dihydro-6H-pyrimido[5,4-b][1,4]oxazin-4-yl)-piperazin-1-yl]-2-(4-trifluoromethylphenyl)-ethyl]-dimethylamine] | > 1000 nM | 101 to 500 nM
CN(C)CC(c1ccc(C(F)(F)F)cc1)N1CCN(c2ncnc3c2CCN3)CC1 (stereo not drawn) [Compound A6, [2-[4-(6,7-Dihydro-5H-pyrrolo[2,3-d]pyrimidin-4-yl)-piperazin-1-yl]-2-(4-trifluoromethylphenyl)-ethyl]-dimethylamine] | 101 to 500 nM | 101 to 500 nM
CN(C)CC(c1ccc(Cl)cc1)N1CCN(c2ncnc3c2CCN3)CC1 (stereo not drawn) [Compound A7, {2-(4-Chlorophenyl)-2-[4-(6,7-dihydro-5H-pyrrolo[2,3-d]pyrimidin-4-yl)-piperazin-1-yl]-ethyl}-dimethylamine] | 101 to 500 nM | 101 to 500 nM
CN(C)CC(c1ccc(Cl)cc1)N1CCN(c2ncnc3c2CCCN3)CC1 (stereo not drawn) [Compound A8, {2-(4-Chlorophenyl)-2-[4-(5,6,7,8-tetrahydro-pyrido[2,3-d]pyrimidin-4-yl)-piperazin-1-yl]-ethyl}-dimethylamine] | 101 to 500 nM | 25 to 100 nM
CN(C)CC(c1ccc(C(F)(F)F)cc1)N1CCN(c2ncnc3c2CCCN3)CC1 (stereo not drawn) [Compound A9, Dimethyl-[2-[4-(5,6,7,8-tetrahydro-pyrido[2,3-d]pyrimidin-4-yl)-piperazin-1-yl]-2-(4-trifluoromethyl-phenyl)-ethyl]-amine] | 25 to 100 nM | 25 to 100 nM
NCC(c1ccc(C(F)(F)F)cc1)N1CCN(c2ncnc3c2OCCN3)CC1 (stereo not drawn) [Compound A10, 2-[4-(7,8-Dihydro-6H-pyrimido[5,4-b][1,4]oxazin-4-yl)-piperazin-1-yl]-2-(4-trifluoromethylphenyl)-ethylamine] | 501 to 1000 nM | 101 to 500 nM
NCC(c1ccc(Cl)cc1)N1CCN(c2ncnc3c2OCCN3)CC1 (stereo not drawn) [Compound A11, 2-(4-Chlorophenyl)-2-[4-(7,8-dihydro-6H-pyrimido[5,4-b][1,4]oxazin-4-yl)-piperazin-1-yl]-ethylamine] | 501 to 1000 nM | 101 to 500 nM
CN(C)CC(c1ccc(C(F)(F)F)c(F)c1)N1CCN(c2ncnc3c2OCCN3)CC1 (stereo not drawn) [Compound A12, [2-[4-(7,8-Dihydro-6H-pyrimido[5,4-b][1,4]oxazin-4-yl)-piperazin-1-yl]-2-(3-fluoro-4-trifluoromethylphenyl)-ethyl]-dimethylamine] | 501 to 1000 nM | 101 to 500 nM
NCC(c1ccc(Cl)cc1)N1CCN(c2ncnc3c2CCN3)CC1 (stereo not drawn) [Compound A13, 2-(4-Chloro-phenyl)-2-[4-(6,7-dihydro-5H-pyrrolo[2,3-d]pyrimidin-4-yl)-piperazin-1-yl]-ethylamine] | 25 to 100 nM | 101 to 500 nM
NCC(c1ccc(F)cc1)N1CCN(c2ncnc3c2CCN3)CC1 (stereo not drawn) [Compound A14, 2-[4-(6,7-Dihydro-5H-pyrrolo[2,3-d]pyrimidin-4-yl)-piperazin-1-yl]-2-(4-fluorophenyl)-ethylamine] | 501 to 1000 nM | 501 to 1000 nM
CN(C)CC(c1ccc(Cl)c(F)c1)N1CCN(c2ncnc3c2CCN3)CC1 (stereo not drawn) [Compound A15, {2-(4-Chloro-3-fluoro-phenyl)-2-[4-(6,7-dihydro-5H-pyrrolo[2,3-d]pyrimidin-4-yl)-piperazin-1-yl]ethyl}-dimethylamine] | 101 to 500 nM | 101 to 500 nM
NCC(c1ccc(C(F)(F)F)cc1)N1CCN(c2ncnc3c2CCCN3)CC1 (stereo not drawn) [Compound A16, 2-[4-(5,6,7,8-Tetrahydro-pyrido[2,3-d]pyrimidin-4-yl)-piperazin-1-yl]-2-(4-trifluoromethyl-phenyl)-ethylamine] | 25 to 100 nM | 25 to 100 nM
NCC(c1ccc(Cl)cc1)N1CCN(c2ncnc3c2CCCN3)CC1 (stereo not drawn) [Compound A17, 2-(4-Chloro-phenyl)-2-[4-(5,6,7,8-tetrahydro-pyrido[2,3-d]pyrimidin-4-yl)-piperazin-1-yl]-ethylamine] | 101 to 500 nM | 25 to 100 nM
CN(C)CC(c1ccc(Cl)c(F)c1)N1CCN(c2ncnc3c2CCCN3)CC1 (stereo not drawn) [Compound A18, {2-(4-Chloro-3-fluoro-phenyl)-2-[4-(5,6,7,8-tetrahydro-pyrido[2,3-d]pyrimidin-4-yl)-piperazin-1-yl]-ethyl}-dimethylamine] | 101 to 500 nM | 25 to 100 nM
CN(C)CC(c1ccc(C(F)(F)F)c(F)c1)N1CCN(c2ncnc3c2CCCN3)CC1 (stereo not drawn) [Compound A19, {2-(3-Fluoro-4-trifluoromethyl-phenyl)-2-[4-(5,6,7,8-tetrahydro-pyrido[2,3-d]pyrimidin-4-yl)-piperazin-1-yl]-ethyl}-dimethylamine] | 25 to 100 nM | 25 to 100 nM
CN(C)CC(c1ccc(C(F)(F)F)c(F)c1)N1CCN(c2ncnc3c2CCN3)CC1 (stereo not drawn) [Compound A20, [2-[4-(6,7-Dihydro-5H-pyrrolo[2,3-d]pyrimidin-4-yl)-piperazin-1-yl]-2-(3-fluoro-4-trifluoromethyl-phenyl)-ethyl]-dimethylamine] | 101 to 500 nM | 25 to 100 nM
NCC(c1ccc(F)cc1)N1CCN(c2ncnc3c2CCCN3)CC1 (stereo not drawn) [Compound A21, 2-(4-Fluoro-phenyl)-2-[4-(5,6,7,8-tetrahydro-pyrido[2,3-d]pyrimidin-4-yl)-piperazin-1-yl]-ethylamine] | > 1000 nM | 501 to 1000 nM
NCC(c1ccc(C(F)(F)F)cc1)C1CCN(c2ncnc3c2CCCN3)CC1 (stereo not drawn) [Compound A22, 2-[1-(5,6,7,8-Tetrahydro-pyrido[2,3-d]pyrimidin-4-yl)-piperidin-4-yl]-2-(4-trifluoromethyl-phenyl)-ethylamine] | 101 to 500 nM | 25 to 100 nM
NCC(c1ccc(C(F)(F)F)cc1)C1CCN(c2ncnc3c2OCCN3)CC1 (stereo not drawn) [Compound A23, 2-[1-(7,8-Dihydro-6H-pyrimido[5,4-b][1,4]oxazin-4-yl)-piperidin-4-yl]-2-(4-trifluoromethyl-phenyl)-ethylamine] | > 1000 nM | > 1000 nM
CN(C)CC(c1ccc(F)cc1)N1CCN(c2ncnc3c2NC(=O)CN3)CC1 (stereo not drawn) [Compound A24, 4-{4-[2-dimethylamino-1-(4-fluoro-phenyl)-ethyl]-piperazin-1-yl}-7,8-dihydro-5H-pteridin-6-one] | > 1000 nM | > 1000 nM
CN(C)CC(c1cccc(F)c1)N1CCN(c2ncnc3c2NC(=O)CN3)CC1 (stereo not drawn) [Compound A25, 4-{4-[2-dimethylamino-1-(3-fluoro-phenyl)-ethyl]-piperazin-1-yl}-7,8-dihydro-5H-pteridin-6-one] | > 1000 nM | > 1000 nM
CN(C)CC(c1ccc(Cl)cc1)N1CCN(c2ncnc3c2NC(=O)CN3)CC1 (stereo not drawn) [Compound A26, 4-{4-[2-dimethylamino-1-(4-chloro-phenyl)-ethyl]-piperazin-1-yl}-7,8-dihydro-5H-pteridin-6-one] | 501 to 1000 nM | 101 to 500 nM
CN(C)CC(c1cccc(Cl)c1)N1CCN(c2ncnc3c2NC(=O)CN3)CC1 (stereo not drawn) [Compound A27, 4-{4-[2-dimethylamino-1-(3-chloro-phenyl)-ethyl]-piperazin-1-yl}-7,8-dihydro-5H-pteridin-6-one] | > 1000 nM | > 1000 nM
